Laboratory results as given in patent US12077503B2, “Substituted cyclic amides and their use as herbicides” (FMC CORPORATION, priority 2015, dated 2024).

What was measured:
Assay type in all cases: in vivo
[1] = test system: Kochia (Kochia scoparia); assay: Test A postemergence; conditions: Bassia scoparia, post-emergence, 240 h; for pest or weed control at 125 g/ha: 125 g ai/ha, postemergence, visual injury on 0 to 100 scale (0 no effect, 100 complete control), approx. 10 d, read-out: Kochia plant response rating; for pest or weed control at 31 g/ha: Postemergence, 31 g ai/ha, visual injury after approx. 10 d, 0 to 100 scale, 0 no effect, 100 complete control, read-out: Plant response rating, Kochia
Method in brief: (§1)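 Seeds sprayed preemergence with a directed soil spray, or plants at 2 to 10 cm height and one- to two-leaf stage sprayed postemergence, with test chemicals in a non-phytotoxic solvent mixture containing surfactant, in loam soil–sand blend. Injury rated visually against untreated controls after about 10 d in greenhouse, 0 (no effect) to 100 (complete control).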

[2] = test system: pigweed (Amaranthus retroflexus); assay: Test A postemergence; conditions: Amaranthus retroflexus, post-emergence, 240 h; for pest or weed control at 125 g/ha: 125 g ai/ha, postemergence, visual injury vs untreated controls after approx. 10 d, 0 = no effect, 100 = complete control, read-out: Pigweed plant response rating (0 to 100 scale); for pest or weed control at 31 g/ha: Postemergence, 31 g ai/ha, visual injury after approx. 10 d, 0 to 100 scale, 0 no effect, 100 complete control, read-out: Plant response rating, Pigweed
Method in brief: as §1

[3] = test system: ragweed (common ragweed, Ambrosia elatior); assay: Test A postemergence; conditions: Ambrosia artemisiifolia, post-emergence, 240 h; for pest or weed control at 125 g/ha: 125 g ai/ha, postemergence, visual injury vs untreated controls after approx. 10 d, 0 = no effect, 100 = complete control, read-out: Ragweed plant response rating (0 to 100 scale); for pest or weed control at 31 g/ha: Postemergence, 31 g ai/ha, visual injury after approx. 10 d, 0 to 100 scale, 0 no effect, 100 complete control, read-out: Plant response rating, Ragweed
Method in brief: as §1

[4] = test system: blackgrass (Alopecurus myosuroides); assay: Test A postemergence; conditions: Alopecurus myosuroides, post-emergence, 240 h; for pest or weed control at 125 g/ha: 125 g ai/ha, postemergence, visual injury on 0 to 100 scale (0 no effect, 100 complete control), approx. 10 d, read-out: Blackgrass plant response rating; for pest or weed control at 31 g/ha: Postemergence, 31 g ai/ha, visual injury after approx. 10 d, 0 to 100 scale, 0 no effect, 100 complete control, read-out: Plant response rating, Blackgrass
Method in brief: as §1

[5] = test system: giant foxtail (Setaria faberii); assay: Test A postemergence; conditions: Setaria faberi, post-emergence, 240 h; for pest or weed control at 125 g/ha: 125 g ai/ha, postemergence, visual injury on 0 to 100 scale (0 no effect, 100 complete control), approx. 10 d, read-out: Foxtail, Giant plant response rating; for pest or weed control at 31 g/ha: Postemergence, 31 g ai/ha, visual injury after approx. 10 d, 0 to 100 scale, 0 no effect, 100 complete control, read-out: Plant response rating, Foxtail, Giant
Method in brief: as §1

[6] = test system: barnyardgrass (Echinochloa crus-galli); assay: Test A postemergence; conditions: Echinochloa crus-galli, post-emergence, 240 h; for pest or weed control at 125 g/ha: 125 g ai/ha, postemergence, visual injury on 0 to 100 scale (0 no effect, 100 complete control), approx. 10 d, read-out: Barnyardgrass plant response rating; for pest or weed control at 31 g/ha: Postemergence, 31 g ai/ha, visual injury after approx. 10 d, 0 to 100 scale, 0 no effect, 100 complete control, read-out: Plant response rating, Barnyardgrass
Method in brief: as §1

[7] = test system: ryegrass, Italian (Italian ryegrass, Lolium multiflorum); assay: Test A postemergence; conditions: Lolium multiflorum, post-emergence, 240 h; for pest or weed control at 125 g/ha: 125 g ai/ha, postemergence, visual injury vs untreated controls after approx. 10 d, 0 = no effect, 100 = complete control, read-out: Ryegrass, Italian plant response rating (0 to 100 scale); for pest or weed control at 31 g/ha: Postemergence, 31 g ai/ha, visual injury after approx. 10 d, 0 to 100 scale, 0 no effect, 100 complete control, read-out: Plant response rating, Ryegrass, Italian
Method in brief: as §1

[8] = test system: wheat (Triticum aestivum); assay: Test A postemergence; conditions: Triticum aestivum, post-emergence, 240 h; for plant injury at 125 g/ha: 125 g ai/ha, postemergence, visual injury vs untreated controls after approx. 10 d, 0 = no effect, 100 = complete control, read-out: Wheat plant response rating (0 to 100 scale); for plant injury at 31 g/ha: Postemergence, 31 g ai/ha, visual injury after approx. 10 d, 0 to 100 scale, 0 no effect, 100 complete control, read-out: Plant response rating, Wheat
Method in brief: as §1

[9] = test system: Galium (catchweed bedstraw, Galium aparine); assay: Test A postemergence; conditions: Galium, post-emergence, 240 h; for pest or weed control at 125 g/ha: 125 g ai/ha, postemergence, visual injury on 0 to 100 scale (0 no effect, 100 complete control), approx. 10 d, read-out: Galium plant response rating; for pest or weed control at 31 g/ha: Postemergence, 31 g ai/ha, visual injury after approx. 10 d, 0 to 100 scale, 0 no effect, 100 complete control, read-out: Plant response rating, Galium
Method in brief: as §1

[10] = test system: corn (Zea mays); assay: Test A postemergence; conditions: Zea mays, post-emergence, 240 h; for plant injury at 125 g/ha: 125 g ai/ha, postemergence, visual injury on 0 to 100 scale (0 no effect, 100 complete control), approx. 10 d, read-out: Corn plant response rating; for Corn plant response rating (crop injury, 0 = no effect, 100 = complete kill) at 31 g/ha: Postemergence, 31 g ai/ha, visual injury after approx. 10 d, 0 to 100 scale, 100 complete control
Method in brief: as §1

[11] = test system: Kochia (Kochia scoparia); assay: Test A preemergence; conditions: Bassia scoparia, pre-emergence, 240 h, 0 to 100 scale where 0 is no effect and 100 is complete control, read-out: Kochia plant response rating; for pest or weed control at 31 g/ha: 31 g ai/ha, Preemergence; for pest or weed control at 125 g/ha: 125 g ai/ha, preemergence, approx. 10 d
Method in brief: as §1

[12] = test system: pigweed (Amaranthus retroflexus); assay: Test A preemergence; conditions: Amaranthus retroflexus, pre-emergence, 240 h, 0 to 100 scale where 0 is no effect and 100 is complete control, read-out: Pigweed plant response rating; for pest or weed control at 31 g/ha: 31 g ai/ha, Preemergence; for pest or weed control at 125 g/ha: 125 g ai/ha, preemergence, approx. 10 d
[13] = test system: ragweed (common ragweed, Ambrosia elatior); assay: Test A preemergence; conditions: Ambrosia artemisiifolia, pre-emergence, 240 h, 0 to 100 scale where 0 is no effect and 100 is complete control, read-out: Ragweed plant response rating; for pest or weed control at 31 g/ha: 31 g ai/ha, Preemergence; for pest or weed control at 125 g/ha: 125 g ai/ha, preemergence, approx. 10 d
Method in brief: as §1

[14] = test system: giant foxtail (Setaria faberii); assay: Test A preemergence; conditions: Setaria faberi, pre-emergence, 240 h, 0 to 100 scale where 0 is no effect and 100 is complete control, read-out: Foxtail, Giant plant response rating; for pest or weed control at 31 g/ha: 31 g ai/ha, Preemergence; for pest or weed control at 125 g/ha: 125 g ai/ha, preemergence, approx. 10 d
Method in brief: as §1

[15] = test system: barnyardgrass (Echinochloa crus-galli); assay: Test A preemergence; conditions: Echinochloa crus-galli, pre-emergence, 240 h, 0 to 100 scale where 0 is no effect and 100 is complete control, read-out: Barnyardgrass plant response rating; for pest or weed control at 31 g/ha: 31 g ai/ha, Preemergence; for pest or weed control at 125 g/ha: 125 g ai/ha, preemergence, approx. 10 d
Method in brief: as §1

[16] = test system: ryegrass, Italian (Italian ryegrass, Lolium multiflorum); assay: Test A preemergence; conditions: Lolium multiflorum, pre-emergence, 240 h, 0 to 100 scale where 0 is no effect and 100 is complete control, read-out: Ryegrass, Italian plant response rating; for pest or weed control at 31 g/ha: 31 g ai/ha, Preemergence; for pest or weed control at 125 g/ha: 125 g ai/ha, preemergence, approx. 10 d
Method in brief: as §1

[17] = test system: ducksalad (Heteranthera limosa); assay: Test B flooded paddy test; conditions: Heteranthera limosa, 250 g ai/ha, Flood; 0 to 100 scale where 0 is no effect and 100 is complete control; read-out: Ducksalad plant response rating
Method in brief: (§2)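 2-leaf plants; pots flooded 3 cm over soil; cpd added to paddy water; depth held; greenhouse 13–15 d; visual rating vs controls, 0 = no effect, 100 = complete control.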

[18] = test system: barnyardgrass (Echinochloa crus-galli); assay: Test B flooded paddy test; conditions: Echinochloa crus-galli, 250 g ai/ha, Flood; 0 to 100 scale where 0 is no effect and 100 is complete control; read-out: Barnyardgrass plant response rating
Method in brief: as §2

[19] = test system: rice (Oryra sativa); assay: Test B flooded paddy test; conditions: Oryza sativa, 250 g ai/ha, Flood; 0 to 100 scale where 0 is no effect and 100 is complete control; read-out: Rice plant response rating
Method in brief: as §2

[20] = test system: sedge, umbrella (small-flower umbrella sedge, Cyperus difformis); assay: Test B flooded paddy test; conditions: Cyperus difformis, 250 g ai/ha, Flood; 0 to 100 scale where 0 is no effect and 100 is complete control; read-out: Sedge, Umbrella plant response rating
Method in brief: as §2

CC(O)c1ccccc1NC(=O)C1C(=O)N(C)CC1c1cccc(C(F)(F)F)c1 (stereo not drawn) [Compound 1147]
20%: pest or weed control at 125 g/ha [14] | pest or weed control at 125 g/ha [15]
0%: pest or weed control at 125 g/ha [1] | pest or weed control at 31 g/ha [1] | pest or weed control at 125 g/ha [2] | pest or weed control at 31 g/ha [2] | pest or weed control at 125 g/ha [3] | pest or weed control at 31 g/ha [3] | pest or weed control at 125 g/ha [4] | pest or weed control at 31 g/ha [4] | pest or weed control at 125 g/ha [5] | pest or weed control at 31 g/ha [5] | pest or weed control at 125 g/ha [6] | pest or weed control at 31 g/ha [6] | pest or weed control at 125 g/ha [7] | pest or weed control at 31 g/ha [7] | plant injury at 125 g/ha [8] | plant injury at 31 g/ha [8] | pest or weed control at 125 g/ha [9] | pest or weed control at 31 g/ha [9] | plant injury at 125 g/ha [10] | Corn plant response rating (crop injury, 0 = no effect, 100 = complete kill) at 31 g/ha [10] | pest or weed control at 31 g/ha [11] | pest or weed control at 125 g/ha [11] | pest or weed control at 31 g/ha [12] | pest or weed control at 125 g/ha [12] | pest or weed control at 31 g/ha [13] | pest or weed control at 125 g/ha [13] | pest or weed control at 31 g/ha [14] | pest or weed control at 31 g/ha [15] | pest or weed control at 31 g/ha [16] | pest or weed control at 125 g/ha [16] | pest or weed control at 250 g/ha [17] | pest or weed control at 250 g/ha [18] | pest or weed control at 250 g/ha [20]
15%: pest or weed control at 250 g/ha [19]

C=C(C)c1ccc([C@H]2CN(C)C(=O)[C@@H]2C(=O)Nc2ccc(F)c(F)c2F)cc1 [Compound 1148]
30%: pest or weed control at 31 g/ha [15]
50%: pest or weed control at 31 g/ha [5] | pest or weed control at 31 g/ha [6] | pest or weed control at 250 g/ha [18]
80%: pest or weed control at 125 g/ha [5] | pest or weed control at 125 g/ha [6]
70%: pest or weed control at 250 g/ha [17]
60%: pest or weed control at 250 g/ha [19]
90%: pest or weed control at 31 g/ha [14] | pest or weed control at 125 g/ha [14] | pest or weed control at 125 g/ha [15]
0%: pest or weed control at 125 g/ha [1] | pest or weed control at 31 g/ha [1] | pest or weed control at 31 g/ha [2] | pest or weed control at 125 g/ha [3] | pest or weed control at 31 g/ha [3] | pest or weed control at 31 g/ha [4] | pest or weed control at 125 g/ha [7] | pest or weed control at 31 g/ha [7] | plant injury at 125 g/ha [8] | plant injury at 31 g/ha [8] | pest or weed control at 31 g/ha [9] | plant injury at 125 g/ha [10] | Corn plant response rating (crop injury, 0 = no effect, 100 = complete kill) at 31 g/ha [10] | pest or weed control at 31 g/ha [11] | pest or weed control at 125 g/ha [11] | pest or weed control at 31 g/ha [12] | pest or weed control at 125 g/ha [12] | pest or weed control at 31 g/ha [13] | pest or weed control at 125 g/ha [13] | pest or weed control at 31 g/ha [16] | pest or weed control at 250 g/ha [20]
20%: pest or weed control at 125 g/ha [2] | pest or weed control at 125 g/ha [4] | pest or weed control at 125 g/ha [16]
40%: pest or weed control at 125 g/ha [9]
